Data on eight compounds can be found in patent US10040806B2, “Microbiocidally active benzoxaboroles” (Syngenta Participations AG, priority 2014, dated 2018).

One may read the melting point as the temperature, or range, at which the solid turns liquid.

The test system of data set [1] is Mycosphaerella graminicola (Septoria tritici). As to the kind of experiment: Mycosphaerella graminicola (Septoria tritici)/liquid culture (Septoria blotch). The data set is classed as cell-based. The following applies: Zymoseptoria tritici, liquid culture, PDB, inhibition of growth determined photometrically 4-5 days after application, read-out: disease control.
In data set [2] the test system is Pythium ultimum. As to the kind of experiment: Pythium ultimum/liquid culture (seedling damping off). The data set is classed as cell-based. The following applies: Globisporangium ultimum, liquid culture, potato dextrose broth, inhibition of growth determined photometrically 2-3 days after application, read-out: disease control.
Data set [3] deals with Mycosphaerella arachidis (Cercospora arachidicola). As to the kind of experiment: Mycosphaerella arachidis (Cercospora arachidicola)/liquid culture (early leaf spot). It counts as cell-based. The following applies: liquid culture, PDB, inhibition of growth determined photometrically 4-5 days after application, read-out: disease control.
Data set [4] relates to Monographella nivalis (Microdochium nivale). As to the kind of experiment: Monographella nivalis (Microdochium nivale)/liquid culture (foot rot cereals). The data set is classed as cell-based. The settings on record: liquid culture, PDB, inhibition of growth determined photometrically 4-5 days after application, read-out: disease control.

For `OB1OCc2cc(Cl)c(O)cc21` [Compound 6, 5-chloro-1-hydroxy-3H-2,1-benzoxaborol-6-ol], the melting point was 194 to 195 °C. The inhibition of growth at 20 ppm in data set [1] is no less than 80%. The inhibition of growth at 20 ppm in data set [2] was no less than 80%. Further, the inhibition of growth at 20 ppm in data set [3] is no less than 80%. Also, in data set [4], the inhibition of growth at 20 ppm was no less than 80%.
The compound `CCOc1cc2c(cc1C)COB2O` [Compound 38, 6-ethoxy-1-hydroxy-5-methyl-3H-2,1-benzoxaborole] yielded a melting point of 97 to 100 °C. Moreover, the inhibition of growth at 20 ppm in data set [1] is no less than 80%. Also, the inhibition of growth at 20 ppm in data set [2] was no less than 80%. Moreover, the inhibition of growth at 20 ppm in data set [3] is no less than 80%. Moreover, in data set [4], the inhibition of growth at 20 ppm was no less than 80%.
Consider `COc1cc(Cl)cc2c1B(O)OC2` [Compound 104, 5-chloro-1-hydroxy-7-methoxy-3H-2,1-benzoxaborole], for which the melting point lay in the range of 146 to 148 °C. The inhibition of growth at 20 ppm in data set [1] is no less than 80%. In addition, the inhibition of growth at 20 ppm in data set [2] was no less than 80%. In data set [3], the inhibition of growth at 20 ppm was no less than 80%. In addition, the inhibition of growth at 20 ppm in data set [4] was no less than 80%.
`OB1OCc2cc(Cl)c(O)c(Cl)c21` [Compound 94, 5,7-dichloro-1-hydroxy-3H-2,1-benzoxaborol-6-ol] came in with a melting point of 174 to 176 °C. Also, in data set [1], the inhibition of growth at 20 ppm was no less than 80%. Also, in data set [2], the inhibition of growth at 20 ppm was no less than 80%. Besides, the inhibition of growth at 20 ppm in data set [3] is no less than 80%. For the same compound, the inhibition of growth at 20 ppm in data set [4] is no less than 80%.
In the case of `CCOc1c(Cl)cc2c(c1Cl)B(O)OC2` [Compound 95, 5,7-dichloro-6-ethoxy-1-hydroxy-3H-2,1-benzoxaborole], the melting point fell in the range of 109 to 111 °C. The inhibition of growth at 20 ppm in data set [1] is no less than 80%. Also, the inhibition of growth at 20 ppm in data set [2] was no less than 80%. Further, in data set [3], the inhibition of growth at 20 ppm is no less than 80%. Besides, the inhibition of growth at 20 ppm in data set [4] was no less than 80%.
In the case of `COc1cc2c(cc1Cl)COB2O` [Compound 5, 5-chloro-1-hydroxy-6-methoxy-3H-2,1-benzoxaborole], the inhibition of growth at 20 ppm in data set [1], in data set [2], in data set [3] and in data set [4] was no less than 80% throughout.
Turning to `OB1OCc2cc3c(cc21)OC(F)(F)O3` [Compound 1], the melting point was 147 to 149 °C. Moreover, in data set [1], the inhibition of growth at 20 ppm was no less than 80%. The inhibition of growth at 20 ppm in data set [2] is no less than 80%. Besides, the inhibition of growth at 20 ppm in data set [3] was no less than 80%. The inhibition of growth at 20 ppm in data set [4] was no less than 80%.
The compound `CCOc1cc2c(cc1Cl)COB2O` [Compound 9, 5-chloro-6-ethoxy-1-hydroxy-3H-2,1-benzoxaborole] registered a melting point of 146 to 148 °C. Moreover, in data set [1], the inhibition of growth at 20 ppm is no less than 80%. Also, the inhibition of growth at 20 ppm in data set [2] is no less than 80%. The inhibition of growth at 20 ppm in data set [3] is no less than 80%. For the same compound, in data set [4], the inhibition of growth at 20 ppm was no less than 80%.
